Patent US8871756B2 (Hoffmann-La Roche Inc., priority 2011, dated 2014)

These molecules were tested on RSV Long strain (assay: Viral cytopathic effect (CPE) assay, anti-RSV activity). Settings: human respiratory syncytial virus, 144 h, RSV Long strain (ATCC); cell viability after 6 days, Cell Counting kit-8.
Format: cell-based, Respiratory Syncytial Virus
Description: Viral cytopathic effect (CPE) assay: To measure anti-RSV activity of compounds, 96-well plates are seeded with 6×10^3 cells per well in Dulbecco's modified Eagle's medium (DMEM) containing 10% fetal bovine serum (FBS). Cells are infected the next day with sufficient RSV Long strain (ATCC) to produce an approximately 80-90% cytopathic effect after 6 days, in the presence of serial half-log diluted compound in a total volume of 200 μL per well. The viability of cells is assessed after 6 days using Cell Counting kit-8 (Dojindo Molecular Technologies). The absorbance at 450 nm and referenced at 630 nm is measured to determine 50% effective concentration (EC50).
The compounds of the present invention were tested for their anti-RSV activity, and the activation as described herein. The Examples were tested in the above assay and found to have EC50 of about 0.0001 μM to about 10 μM.

Compound | EC50
COc1ccc2c(c1)S(=O)(=O)CCN(c1cc(NCC3(N)COC3)c3cc(C)ccc3n1)C2 [Example 1-1, N-[(3-Aminooxetan-3-yl)methyl]-2-(8-methoxy-1,1-dioxido-2,3-dihydro-1,4-benzothiazepin-4(5H)-yl)-6-methylquinolin-4-amine] | 0.002 µM
C[S+]([O-])c1ccc2nc(N3CCS(=O)(=O)c4ccccc4C3)cc(NCCCN)c2c1 (stereo not drawn) [Example 80, N-[2-(1,1-Dioxido-2,3-dihydro-1,4-benzothiazepin-4(5H)-yl)-6-(methylsulfinyl)quinolin-4-yl]propane-1,3-diamine] | 5.48 µM
Cc1ccc2nc(N3CC[S+]([O-])c4ccccc4C3)cc(NCCO)c2c1 (stereo not drawn) [Example 18-11, 2-{[6-Methyl-2-(1-oxido-2,3-dihydro-1,4-benzothiazepin-4(5H)-yl)quinolin-4-yl]amino}ethanol] | 0.619 µM
Cc1ccc2nc(N3CCS(=O)(=O)c4ccccc4C3)cc(NCC3CNCCO3)c2c1 (stereo not drawn) [Example 21-1, 2-(1,1-Dioxido-2,3-dihydro-1,4-benzothiazepin-4(5H)-yl)-6-methyl-N-(morpholin-2-ylmethyl)quinolin-4-amine] | 0.023 µM
Cc1ccc2nc(N3CCS(=O)(=O)c4ccccc4C3)cc(N[C@@H](C)CO)c2c1 [Example 8-2, (2S)-2-{[2-(1,1-Dioxido-2,3-dihydro-1,4-benzothiazepin-4(5H)-yl)-6-methylquinolin-4-yl]amino}propan-1-ol] | 0.817 µM
Cc1ccc2nc(N3CCS(=O)(=O)c4ccccc4C3)cc(NC(=O)Nc3ccccc3)c2c1 [Example 50-1, 1-[2-(1,1-Dioxido-2,3-dihydro-1,4-benzothiazepin-4(5H)-yl)-6-methylquinolin-4-yl]-3-phenylurea] | 0.931 µM
NCCNc1cc(N2CCCc3ccccc3C2)nc2ccc(OC(F)(F)F)cc12 [Example 118-23, N-[2-(1,3,4,5-Tetrahydro-2H-2-benzazepin-2-yl)-6-(trifluoromethoxy)quinolin-4-yl]ethane-1,2-diamine] | 2.64 µM
NCC1(CNc2nc(N3CCS(=O)(=O)c4ccccc4C3)nc3ccc(Cl)cc23)COC1 [Example 56-3, N-{[3-(aminomethyl)oxetan-3-yl]methyl}-6-chloro-2-(1,1-dioxido-2,3-dihydro-1,4-benzothiazepin-4(5H)-yl)quinazolin-4-amine] | 0.004 µM
Cc1ccc2nc(N3CCS(=O)(=O)c4cc(Oc5ccccc5)ccc4C3)cc(NCC3(N)COC3)c2c1 [Example 35, N-[(3-Aminooxetan-3-yl)methyl]-2-(1,1-dioxido-8-phenoxy-2,3-dihydro-1,4-benzothiazepin-4(5H)-yl)-6-methylquinolin-4-amine] | 2.79 µM
Cc1ccc2nc(N3CCS(=O)(=O)c4ccccc4C3)cc(NCCCCN)c2c1 [Example 9-19, N-[2-(1,1-Dioxido-2,3-dihydro-1,4-benzothiazepin-4(5 H)-yl)-6-methylquinolin-4-yl]butane-1,4-diamine] | 0.0007 µM
Cc1ccc2nc(N3CCS(=O)(=O)c4ccccc4C3)cc(N[C@@H]3CCCC[C@H]3N)c2c1 (relative stereo) [Example 3-15, trans-N-[2-(1,1-Dioxido-2,3-dihydro-1,4-benzothiazepin-4(5H)-yl)-6-methylquinolin-4-yl]cyclohexane-1,2-diamine] | 0.482 µM
Cc1ccc2nc(N3CCS(=O)(=O)c4ccccc4C3)cc(NC(=O)CO)c2c1 [Example 47-9, N-[2-(1,1-Dioxido-2,3-dihydro-1,4-benzothiazepin-4(5H)-yl)-6-methylquinolin-4-yl]-2-hydroxyacetamide] | 0.192 µM
Cc1ccc2nc(N3CCS(=O)(=O)c4ccccc4C3)cc(NCC(N)=O)c2c1 [Example 36-5, N^˜2^˜-[2-(1,1-Dioxido-2,3-dihydro-1,4-benzothiazepin-4(5H)-yl)-6-methylquinolin-4-yl]glycinamide] | 0.026 µM
Cc1ccc2nc(N3CCS(=O)(=O)c4ccccc4C3)cc(NC(=O)N(C)C)c2c1 [Example 3-63, 3-[2-(1,1-Dioxido-2,3-dihydro-1,4-benzothiazepin-4(5H)-yl)-6-methylquinolin-4-yl]-1,1-dimethylurea] | 9.9 µM
NCCNc1cc(N2CCCc3ccccc3C2)nc2cccc(Cl)c12 [Example 119, N-[5-Chloro-2-(1,3,4,5-tetrahydro-2H-2-benzazepin-2-yl)quinolin-4-yl]ethane-1,2-diamine] | 6.66 µM
Cc1ccc2nc(N3CCS(=O)(=O)c4ccccc4C3)cc(N(C)CCN)c2c1 [Example 21-2, N-[2-(1,1-Dioxido-2,3-dihydro-1,4-benzothiazepin-4(5H)-yl)-6-methylquinolin-4-yl]-N-methylethane-1,2-diamine] | 0.161 µM
Cc1ccc2nc(N3CCS(=O)(=O)c4ccccc4C3)cc(N3CCC(C)(N)C3)c2c1 (stereo not drawn) [Example 64, 1-[2-(1,1-Dioxido-2,3-dihydro-1,4-benzothiazepin-4(5H)-yl)-6-methylquinolin-4-yl]-3-methylpyrrolidin-3-amine] | 0.035 µM

Compound | EC50
Cc1ccc2nc(N3CC[S+]([O-])c4ccccc4C3)nc(NCC(F)(F)CN)c2c1 (stereo not drawn) [Example 56-2, 2,2-Difluoro-N-[6-methyl-2-(1-oxido-2,3-dihydro-1,4-benzothiazepin-4(5H)-yl)quinazolin-4-yl]propane-1,3-diamine] | 0.023 µM
NCCCNc1cc(N2CCS(=O)(=O)c3ccccc3C2)nc2c(Cl)cccc12 [Example 9-12, N-[8-Chloro-2-(1,1-dioxido-2,3-dihydro-1,4-benzothiazepin-4(5H)-yl)quinolin-4-yl]propane-1,3-diamine] | 2.66 µM
Cc1ccc2nc(N3CCS(=O)(=O)c4ccccc4C3)cc(NC(=O)C(C)(C)N)c2c1 [Example 40-2, N-[2-(1,1-Dioxido-2,3-dihydro-1,4-benzothiazepin-4(5H)-yl)-6-methylquinolin-4-yl]-2-methylalaninamide] | 4.66 µM
Cc1ccc2nc(N3CCS(=O)(=O)c4ccccc4C3)cc(N3CCC(N)C3)c2c1 (stereo not drawn) [Example 25, 1-[2-(1,1-Dioxido-2,3-dihydro-1,4-benzothiazepin-4(5H)-yl)-6-methylquinolin-4-yl]pyrrolidin-3-amine] | 0.002 µM
Cc1ccc2nc(N3CCS(=O)(=O)c4ccccc4C3)cc(N3CC(N)C3)c2c1 [Example 26-2, 1-[2-(1,1-Dioxido-2,3-dihydro-1,4-benzothiazepin-4(5H)-yl)-6-methylquinolin-4-yl]azetidin-3-amine] | 0.179 µM
Cc1ccc2nc(N3CCS(=O)(=O)c4ccccc4C3)cc(NCCC3(N)CC3)c2c1 [Example 20-3, [2-(1-Amino-cyclopropyl)-ethyl]-[2-(1,1-dioxido-2,3-dihydro-1,4-benzothiazepin-4(5H)-yl)-6-methylquinolin-4-yl]-amine] | 0.093 µM
NC1=N[C@@H](CCc2cc(N3CCCc4ccccc4C3)nc3ccccc23)CO1 [Example 131, (4S)-4-{2-[2-(1,3,4,5-Tetrahydro-2H-2-benzazepin-2-yl)quinolin-4-yl]ethyl}-4,5-dihydro-1,3-oxazol-2-amine] | 2.52 µM
O=S1(=O)CCN(c2cc(NCCO)c3cc(Cl)ccc3n2)Cc2ccccc21 [Example 9-31, 2-{[6-Chloro-2-(1,1-dioxido-2,3-dihydro-1,4-benzothiazepin-4(5H)-yl)quinolin-4-yl]amino}ethanol] | 2.43 µM
Cc1ccc2nc(N3CC[S+]([O-])c4ccccc4C3)nc(NCC(F)CN)c2c1 (stereo not drawn) [Example 55-3, 2-Fluoro-N-[6-methyl-2-(1-oxido-2,3-dihydro-1,4-benzothiazepin-4(5H)-yl)quinazolin-4-yl]propane-1,3-diamine] | 0.006 µM
Cc1ccc2nc(N3CC[S+]([O-])c4ccccc4C3)nc(NCC3(N)COC3)c2c1 (stereo not drawn) [Example 55-1, N-[(3-Aminooxetan-3-yl)methyl]-6-methyl-2-(1-oxido-2,3-dihydro-1,4-benzothiazepin-4(5H)-yl)quinazolin-4-amine] | 0.007 µM
NC1(CNc2nc(N3CCSc4ccccc4C3)nc3ccccc23)COC1 [Example 57-1, N-[(3-Aminooxetan-3-yl)methyl]-2-(2,3-dihydro-1,4-benzothiazepin-4(5H)-yl)quinazolin-4-amine] | 0.067 µM
Cc1ccc2nc(N3CCS(=O)(=O)c4ccccc4C3)cc(NC(=O)C3CNC(=O)C3)c2c1 (stereo not drawn) [Example 47-2, N-[2-(1,1-Dioxido-2,3-dihydro-1,4-benzothiazepin-4(5H)-yl)-6-methylquinolin-4-yl]-5-oxopyrrolidine-3-carboxamide] | 5.82 µM
Cc1ccc2nc(N3CCS(=O)(=O)c4ccccc4C3)cc(N3CCC(NC4COC4)C3)c2c1 (stereo not drawn) [Example 45-2, 1-[2-(1,1-Dioxido-2,3-dihydro-1,4-benzothiazepin-4(5H)-yl)-6-methylquinolin-4-yl]-N-(oxetan-3-yl)pyrrolidin-3-amine] | 0.253 µM
Cc1ccc2nc(N3CCS(=O)(=O)c4ccccc4C3)cc(N3CC4CC3C4N)c2c1 (stereo not drawn) [Example 19-8, 2-[2-(1,1-Dioxido-2,3-dihydro-1,4-benzothiazepin-4(5H)-yl)-6-methylquinolin-4-yl]-2-azabicyclo[2.1.1]hexan-5-amine] | 2.75 µM
COC(=O)c1ccc2nc(N3CCS(=O)(=O)c4ccccc4C3)cc(NCC3(CN)COC3)c2c1 [Example 104, Methyl 4-({[3-(aminomethyl)oxetan-3-yl]methyl}amino)-2-(1,1-dioxido-2,3-dihydro-1,4-benzothiazepin-4(5H)-yl)quinoline-6-carboxylate] | 0.89 µM
Cc1ccc2nc(N3CCS(=O)(=O)c4ccccc4C3)cc(N3C[C@H](O)CC3=O)c2c1 [Example 47-1, (4R)-1-[2-(1,1-Dioxido-2,3-dihydro-1,4-benzothiazepin-4(5H)-yl)-6-methylquinolin-4-yl]-4-hydroxypyrrolidin-2-one] | 7.88 µM
